The test system of test [1] is N2a695 cells. The test can be described thus: Screening of Aβ production in N2a695 cells (Aβ ELISA of cell supernatants). The test is classed as cell-based. Here is the method: N2a695 were cultured in 1:1 OptiMem Reduced Serum Media (Life Technologies): Dulbecco’s Modified Eagle Medium ([+] 4.5 g/L D-glucose [+] L-Glutamine; [−] Sodium pyruvate (Life Technologies) supplemented with 5% fetal bovine serum, 0.4% Penstrep and 0.4% Geneticin and incubated at 37°C in 5% CO2. Antibodies were obtained from The Laboratory of Molecular and Cellular Neuroscience at The Rockefeller University. Human Aβ40 and Aβ42 ELISA plates (Life Technologies) and Plus MSD (Mesoscale Discovery) plates for Aβ Peptide (Aβ38, Aβ40 and Aβ42) Panel 1 (6E10) Kit (Catalog number K15200G) were obtained from Thermo Fisher, Life Technologies and Meso Scale Discovery.
N2a695 cells were used to screen all new compounds and in the follow-up studies with compounds found active in the preliminary screen. In a typical experiment, 6-well tissue culture plates (Corning) were seeded at 4.0 × 10^5–4.5 × 10^5 N2a695 cells/mL, 2 mL/well for overnight incubation. When cells were >95% confluent, media were exchanged with fresh media containing 10 µM solutions of compounds or DMSO carrier alone and cells were incubated at 37°C in 5% CO2 for 5 h. Culture media were collected and soluble Aβ concentrations in the media were determined by ELISA or MSD plates for human Aβ peptides as per manufacturer instructions. Signals for Aβ were measured using Perkin Elmer Envision and SQ120 MSD ELISA reader. Follow-up studies with N2a695 cells were performed similarly.
Specifically, we exposed N2a695 cells to increasing concentrations of each compound and measured the production of Aβ38, 40, and 42. […] Remarkably, this occurs for all Aβ peptides tested shorter than 40 amino acids (Figure 2C). Moreover, for some compounds that modulate γ-secretase activity most conspicuously at 5 μM, this effect vanishes at 10 μM, relative to controls (Figure 2B, C). […]
(ELISA stands for enzyme-linked immunosorbent assay.)

The subject of test [2] is BACE1. Details: method as in Netzer et al., 2017. To be noted: two in vitro BACE1 assays, concentrations up to 100 μM; ref Netzer et al., 2017; cited from earlier work.
For test [3], the target named is T1, Abl1 kinase (Homo sapiens, UniProt P00519).
T1 sequence (P00519 242-493 limits assumed): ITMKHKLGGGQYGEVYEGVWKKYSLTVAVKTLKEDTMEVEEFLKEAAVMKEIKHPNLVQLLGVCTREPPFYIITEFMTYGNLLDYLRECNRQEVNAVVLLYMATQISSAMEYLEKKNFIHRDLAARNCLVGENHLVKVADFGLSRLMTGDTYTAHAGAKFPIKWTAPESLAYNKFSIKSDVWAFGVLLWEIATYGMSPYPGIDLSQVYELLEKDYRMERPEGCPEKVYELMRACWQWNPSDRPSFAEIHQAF
Nature of the test: In vitro kinase activity assay (split-luciferase, Luceome). It counts as biochemical. To be noted: read-out: IC50, Abl kinase. On the procedure:
The assay was performed by Luceome Biotechnologies, LLC. Typically, 10 mM stock solutions of the compounds were diluted in DMSO to a concentration of 250 μM. Prior to initiating the assay, all test compounds were evaluated for false positive against split-luciferase ([Jester et al., 2010]). For kinase assays, each Cfluc-Kinase was translated along with Fos-Nfluc using a cell-free system (rabbit reticulocyte lysate) at 30°C for 90 min 24 μL aliquot of this lysate containing either 1 μL of DMSO (for no-inhibitor control) or compound solution in DMSO (10 μM final concentration) was incubated for 30 min at room temperature followed by 1 h in presence of a kinase specific probe. 80 μL of luciferin assay reagent was added to each solution and luminescence was immediately measured on a luminometer. The percent Inhibition was calculated using the following equation: % Inhibition = (ALUcontrol–ALUsamplex 100)/ALUcontrol.

The test system of test [4] is β- and γ-cleavages of APP. Nature of the test: Aβ in N2a cells transiently transfected with APP-FL or APP99 (APP-βCTF): BACE vs γ-secretase cleavage. As to conditions: N2a cells transiently transfected with APP695 (APP-FL) or APP C99, 5 h. The test is classed as cell-based. Here is the method: To determine effects of compounds on BACE1 vs. GS inhibition, we used N2a cells transiently transfected with full length APP (APP-FL) or with APP99 (APP-βCTF) as described previously ([Netzer et al., 2017]; [Sun et al., 2019]). After 48 h, media were removed and fresh media containing compound 1a and analogs were added. Following 5 h of incubation, cell supernatants were collected, and analyzed using MSD-ELISA for Aβ and sAPPα and western blot for sAPPβ.
We focused on IMTi-1 and its analogs 1d, 1f and 1p. […] To test whether these compounds lower Aβ levels by affecting the BACE and/or γ-secretase cleavages, we transfected wild-type (wt) cells with APP-FL and APP βCTF (C99), respectively, and incubated the cells with IMTi-1 (isomer) and analogs 1d, 1f and 1p. We used BACE inhibitor, MK8931, and γ-secretase inhibitor, DAPT, as controls and performed the experiments and processed the results as described previously ([Sun et al., 2019]).

Here are results for 2 molecules from PMC11493595, “Stretching the structural envelope of imatinib to reduce β-amyloid production by modulating both β- and γ-secretase cleavages of APP” (Frontiers in Chemistry, 2024).

Where a name gives a salt, the structure may show the parent alone.

On to `Cc1ccc(NC(=O)c2ccc(CN3CCN(C)CC3)cc2)cc1Nc1nccc(-c2cccnc2)n1` [IMT, imatinib mesylate, reference compound], for which the “Activity in Aβ production assays” value in test [1] (N2a695 cells) is “active”. Further, the “Inhibition of BACE1 enzymatic activity” value in test [2] is reported as “does not inhibit BACE1 enzymatic activity”.

As usually defined, the IC50 is the point on the concentration scale where inhibition reaches its midpoint. Take `Cc1ccccc1Nc1nccc(-c2cncc(NC(=O)c3ccc(CN4CCN(C)CC4)cc3)c2)n1` [IMTi-1]: in test [1] (5 μM, N2a695 cells, ELISA), the “Aβ38 levels relative to controls” value is on record as “boost levels of Aβ38 above controls”. Also, the “Reduction of Aβ40 levels compared with IMT” value in test [1] (10 µM, N2a695 cell supernatants, anti-Aβ40 ELISA) is “reduced Aβ40 levels more strongly than IMT”. The “Activity in Aβ production assays” value in test [1] (N2a695 cells) is “active”. In test [3], the IC50 was determined as 1170 nM. Also, the “BACE and γ-secretase cleavage of APP, Aβ levels” value in test [4] was “lower BACE and γ-secretase cleavage of APP”.
